# Results published in patent publication US20250195474A1, “Piezo Inhibition for Wound Healing” (priority 2022, published 2025).
# B1: Wnt5a recombinant protein: Wnt5a recombinant protein applied to the in vitro collagen gel system (protein, UniProt P41221 62-380, looked up)
# Protein Wnt-5a: IIGAQPLCSQLAGLSQGQKKLCHLYQDHMQYIGEGAKTGIKECQYQFRHRRWNCSTVDNTSVFGRVMQIGSRETAFTYAVSAAGVVNAMSRACREGELSTCGCSRAARPKDLPRDWLWGGCGDNIDYGYRFAKEFVDARERERIHAKGSYESARILMNLHNNEAGRRTVYNLADVACKCHGVSGSCSLKTCWLQLADFRKVGDALKEKYDSAAAMRLNSRGKLVQVNSRFNSPTTQDLVYIDPSPDYCVRNESTGSLGTQGRLCNKTSEGMDGCELMCCGRGYDQFKTVQTERCHCKFHWCCYVKCKKCTEIVDQFVCK
# Legend:
# mouse adipocytes = experiment: Mouse adipocyte-populated collagen I hydrogels with or without mechanical stretch; conditions: 10% equibiaxial strain, 7 days; GsMTx4 500 nM, D-GsMTx4 500 nM, PF573228 10 uM, Verteporfin 300 nM
# adipocytes = experiment: Adipocyte ablation with diphtheria toxin in wounded Adipoq Cre-ERT iDTR mice; type: in vivo, mouse
# existing scars = experiment: Treatment of existing scars during remodeling (scar rescue); type: in vivo, mouse; conditions: treated at POD 30, 75 or 120, harvested one month later
# Description: While wound re-epithelialization is complete relatively quickly (around 2 weeks), wounds continue to heal beneath the surface for months to years in a process known as scar remodeling. (Foster et al., 2021; Gurtner et al., 2008) Remodeling is the longest and least well understood phase of wound repair but is likely critical to ultimate outcomes. We postulated that ADFs could continue to play a role in scarring during the remodeling process; if this were the case, we wondered whether ADF activity could be targeted during wound remodeling, via P1i in existing, actively remodeling scars, to ultimately reduce scarring and drive regeneration (FIG. 6A,C). Thus, we administered P1i to existing scars at POD 30 (early remodeling period), POD 75 (mid-remodeling), and POD 120 (late remodeling), then harvested tissue one month later at POD 60, POD 105, and […] respectively (FIG. 6A, C).
# dorsal excisional wounds [1] = conditions: POD 30; cited from earlier work
# human adipocytes [2] = experiment: Calcium imaging of hydrogel-bound adipocytes (Fluo-4 AM); type: cell-based; conditions: stretched human adipocytes
# Description: Calcium imaging was used to determine in vitro Ca^2+ flow in hydrogel-bound adipocytes with or without mechanical strain and with or without Piezo1 inhibitor treatment. A Fluo-4, AM cell permeant kit (ThermoFisher, Cat: F-14201) was used per the manufacturer's instructions. […] Imagej was used for image quantification.
# dorsal excisional wounds [3] = experiment: Splinted dorsal excisional wounding with inhibitor injected at POD 0; type: in vivo, mouse
# wounds [4] = experiment: Visium spatial transcriptomic analysis of wounds; type: in vivo, mouse
# Method: Wound specimens were rapidly harvested and flash frozen in OCT. Using the Visium Tissue Optimization Slide and Reagent Kit, permeabilization time was optimized at a thickness at 10 μm per section and 37 minutes for mouse tissue. Following cryo-sectioning at −20 degrees onto gene expression slides the expression slide and reagent kit was used to produce sequencing libraries. The libraries were then sequences using NextSeq (Illumina). Following demultiplication the raw FASTQ files and histology images were processed by sample with the Space Ranger software for genome alignment. The raw spaceranger output files for each sample was then read into a Seurat class object in R using Seurat's Load10× function. Data was normalized using the SCT transform with default parameters. To ascertain the integration of our scRNAseq and Visium spatial analysis we employed the FindTransferAnchors( ) function from Seurat, which allowed the alignment of data using the two datasets. This cross-platform linkage is performed serially in an unconstrained and constrained fashion.
# wounds [5] = experiment: CODEX spatial protein analysis of POD 14 wounds; type: in vivo, mouse; conditions: POD 14, vs PBS
# Description: To spatially phenotype the pig specimens, we used Co-Detection by Indexing (CODEX), a novel assay in which markers are labeled with oligonucleotide-conjugated antibodies and iteratively imaged between cyclic additions and washouts of dye-labeled oligonucleotides. A custom CODEX panel was designed to assess wound cells within the tissue see Table 1). In brief, primary antibodies were individually barcoded and validated using the commercial supplier's protocols. OCT for mouse or paraffin blocks for human xenograft (n=3 per group) were sectioned at 8 μm thickness onto coverslips for CODEX antibody staining. Antigens were retrieved by standard citrate-EDTA processing prior to addition of CODEX antibodies. Using a CODEX-integrated Keyence BZ-X instrument (Akoya Biosciences) image acquisition was then performed. Using software from Akoya Biosciences the raw images were process, with cell segmentation, and rendering.
# The CODEX was visualized using Akoya Biosciences Multiplex Analysis Viewer (MAV) in ImageJ. The resulting .fcs files were then concatenated in FlowJo and imported into the Monocle3 and STvEA R packages for further analysis. After debris removal, the processed UMAP manifold was analyzed through Monocle3 with a post-manifold threshold of >10,000 cells per cluster. Analysis of the protein staining patterns was then used to assign cell types. The cell interactions were then inferred using STvEA for cell types at >2.5% of total abundance at k=20 nearest neighbors to quantify cell spatial interactions, and differential interaction maps were generated using graph scores.
# human adipocytes [6] = experiment: Human adipocyte-populated collagen I hydrogels with or without mechanical stretch
# human fibroblasts = experiment: Human fibroblasts in 3D collagen gels with stretching; type: cell-based
# Description: To further confirm that human cluster 3 represented a pro-regenerative ADF population we utilized our in vitro collagen gel system. We first, FACS sorted human fibroblasts based on expression of cluster 3 markers including ROBO2, CD29, and SFRP2 and seeded them into 3D collagen gels (FIG. 42B). […] In contrast, stretching with P1 inhibition kept the fibroblasts in a more adipocyte-like phenotype, with high expression of PPARg and low expression of Collagen Type I, similar to fibroblasts in an unstretched state (FIG. 42B).
# To determine if P1i may activate […] Wnt pathways to maintain cluster 3 in an adipocyte-like phenotype, we applied Wnt5a recombinant protein to the in vitro collagen gel system (FIG. 42C). […] In summary, P1i treatment may revert fibroblasts towards the mechanically naïve fibroblast pro-regenerative fibroblast population through the activation of canonical Wnt pathways and thereby preventing the transition to pro-scarring phenotypes defined by CJUN and VCAM1 expression.
molecule,measurement,setting,value
"CS(=O)(=O)c1cccc(CNc2nc(Nc3ccc4c(c3)CCC(=O)N4)ncc2C(F)(F)F)c1 [FAKi, PF573228]","stretch-induced phenotypic switch (losing adiponectin, expressing Col1)",mouse adipocytes,abrogated
diphtheria toxin [DT],subdermal fat and GFP+ cells (efficacy of ablation),"adipocytes; 200 ng intradermal daily over 3 days, unwounded skin and POD 14 wounds",minimal to no subdermal fat and no GFP^+ cells in wounds
same,ECM ultrastructure,adipocytes; POD 14,less scar-like and more closely resembled unwounded skin
same,Col1 and α-SMA content,"adipocytes; POD 14, vs PBS control scars",decreased
same,ECM density,"adipocytes; POD 14, vs PBS control scars",less dense
same,dermal thickness,"adipocytes; POD 14, vs PBS control scars",significantly reduced
Verteporfin [YAPi],wound regeneration in existing scars,existing scars,did not induce regeneration
same,"hair regrowth (previous study, Mascharak et al., 2021a)",dorsal excisional wounds [1],allow for hair regrowth
same,"stretch-induced phenotypic switch (losing adiponectin, expressing Col1)",mouse adipocytes,abrogated
D-GsMTx4 [P2i],calcium staining with stretching,human adipocytes [2],decreased
same,time to complete wound re-epithelialization,"dorsal excisional wounds [3]; 30 uL of 0.2 mg/ml intradermal at wound edge, POD 0",did not significantly affect
same,Oil Red O staining and IF for cytokeratins 14/19 (regenerating appendages),dorsal excisional wounds [3]; POD 14,presence of putative regenerating sebaceous glands/HF
same,adipocyte-derived fibroblasts (ADFs) in wounds,"dorsal excisional wounds [3]; POD 14, FACS and histology",significantly reduced
same,Col1 and α-SMA,dorsal excisional wounds [3]; POD 14 and POD 30,reduced
same,ECM density,dorsal excisional wounds [3]; POD 14 and POD 30,less dense
same,hair follicle formation,dorsal excisional wounds [3]; POD 30,allowed for hair follicle formation
same,differential interaction maps (Visium),wounds [4]; POD 14,strong interactions between adipocytes and fibroblasts
same,fibroblast scRNA-seq cluster 0 (mechanically sensitive) spatial enrichment,wounds [4]; POD 14,highly enriched in PBS-treated POD 14 wounds compared to P1i or P2i treated wounds
same,fibroblast scRNA-seq cluster 5 (mechanically naive) spatial presence,wounds [4]; POD 14,observed
same,spatially variable features (gene expression),wounds [4]; POD 14,high expression of markers associated with the epidermis including Krt1 and Krt14
same,adipocyte and epithelial cells in the spatial environment,"wounds [4]; POD 14, vs PBS",enriched
same,individual adipocyte-fibroblast subpopulation interactions (CODEX),wounds [5],enhanced interactions between mechanically naïve subpopulations including adipocyte cluster 1 and fibroblast clusters 2 and 4
same,"stretch-induced phenotypic switch (losing adiponectin, expressing Col1)",mouse adipocytes,abrogated
same,stretch-induced hypertrophy of human adipocytes,"human adipocytes [6]; 10% equibiaxial strain, 7 days",reversed
Clc1cccc(Cl)c1CSc1nnc(-c2cnccn2)s1 [Yoda1],adipocyte hypertrophy and conversion to fibroblasts,human adipocytes [6]; absence of applied stretch,sufficient to drive adipocyte hypertrophy and conversion to fibroblasts
B1,"phenotype of human fibroblasts (PPARg, Collagen Type 1)",human fibroblasts,a more adipocyte like phenotype with high expression of PPARg and low expression of Collagen Type 1
